The values that follow come from PMC10611578, “Aβ1-6A2V(D) peptide, effective on Aβ aggregation, inhibits tau misfolding and protects the brain after traumatic brain injury” (Molecular Psychiatry, 2023).

Square brackets hold non-standard residues; d marks the D form. Peptide text beside a SMILES is read from it.

A short description of data set [1]: MALDI-TOF imaging brain biodistribution after intranasal administration, TBI mice. Type of data set: in vivo, mouse (3xTg-AD. On the procedure: The Aβ1-6A2V(D) was administered to 3xTg-AD and 24-month-old WT TBI underwent mice by repeated intranasal administration as described in [39]. In brief, mice were acclimatized for 2 weeks before the surgery and the treatment. Aβ1-6A2V(D) was administered to mice at 50 mg/kg body weight (b.w.) (about 5 µL/nostril/mouse, 10 µL total/each treatment session/mouse) starting at 10 min post-TBI and every 48 h up to 6 days post-injury, using a 20 µL pipette and gel loading pipette tip. At each treatment session, the mice were held in place for 30 seconds after the first 5 µL administration and then left free to move in a cage for 30 seconds before administering the remaining treatment/vehicle. Weight was assessed before each intranasal administration. Neurological functions were monitored longitudinally and plasma levels of neurofilament light (NfL) were assessed at sacrifice as detailed in the Supplementary information (sections ‘Behavioural test’ and ‘Plasmatic neurofilament light’). Seven days after surgery, the mice were sacrificed, the brain was removed, and ipsilateral cortical areas were dissected out, immediately frozen on dry ice, and stored at −80 °C until their use for biochemical and C. elegans studies. At 4 h, 24 h, 48 h, and 72 h after surgery, a subset of mice (n = 3) was sacrificed, and their brains were removed, frozen immediately in liquid nitrogen, and stored at −80 °C until matrix-assisted laser desorption/ionization (MALDI)-imaging analysis. The investigators were blinded to treatment allocation during the assessment of the results.
Fig. 3 Biodistribution of Aβ1-6A2V(D) in brain parenchyma of 3xTg-AD injured mice after intranasal administration. A Mice were subjected to TBI, randomly distributed into two groups, and treated intranasally 10 min post-injury with either a single dose of Aβ1-6A2V(D) (50 mg/kg b.w.) or saline (vehicle). MALDI-imaging analyses were performed 4-h, 24-h, 48-h, and 72-h post-administration. B Representative images of Aβ1-6A2V(D) biodistribution assessed by MALDI-TOF and imaged as a heatmap (red > Aβ1-6A2V(D) concentration > deep purple).
Studies were carried out as described by Catania et al. to confirm that the intranasal administration of Aβ1-6A2V(D) to injured mice allows the efficient distribution of the peptide in the brain tissue. Brains from injured 3xTg-AD mice were used to prepare […] sections (14 μm thickness) at -20°C in a cryostat. Fourteen µm coronal sections of fresh-frozen brains were cut and serially collected from bregma +0.8 mm to -2.7 mm at 700 µm intervals for MALDI analysis and Cresyl violet staining to pair Aβ1-6A2V(D) biodistribution to anatomical structures. […]

The subject of another data set is C. elegans. Particulars: in vivo; cited from earlier work.
The conditions of data set [2]: ref [16]; cited from earlier work.
The next data set has as its target T1, BACE (Homo sapiens, UniProt P56817).
T1 construct: purchased Abcam ab283408
Kind of data set: BACE1 Inhibitor Screening Kit in vitro. Type of data set: biochemical. The settings on record: BACE1 Inhibitor Screening Kit ab283408, 60 min at 37 °C, fluorescence Ex/Em 345/500 nm; read-out: IC50 for inhibition of BACE activity in vitro. On the procedure: The ability of Aβ1-6A2V(D) to inhibit BACE activity was measured in vitro as described in the BACE1 Inhibitor Screening Kit ab283408 (Abcam, Cambridge, UK). Increasing concentrations of Aβ1-6A2V(D) were employed. Fluorescence was read for 60 min at 37°C at Ex/Em= 345/500 nm using a spectrophotometer (Infinite M200, Tecan, Männedorf, Switzerland). BACE activity was measured in the ipsilateral cortex of 3xTg-AD TBI mice treated with or without the peptide using the β-Secretase Activity Fluorometric Assay Kit MAK237 (Sigma Aldrich, St. Louis, USA). The protein concentration of the samples was analyzed using the BCA assay, as previously described. The samples were diluted to obtain a final concentration of 25 µg proteins/50 µL and then processed according to the kit instructions. Fluorescence was read at Ex/Em = 355/495 nm.
Supplementary Figure 7. Effect of Aβ1-6A2V(D) on the BACE activity. (A) Dose-dependent inhibitory effect of Aβ1-6A2V(D) on BACE activity determined in vitro. (B) BACE activity determined in the brain homogenates of 3xTg-AD TBI mice (N = 3) treated (TBI Aβ1-6A2V(D)) or not (TBI vehicle) with 50 mg/kg b.w. Aβ1-6A2V(D) and sacrificed 24 h after the last administration. Data are mean ± SD, one-way ANOVA, and Bonferroni’s post hoc test.

The subject of data set [3] is tau (P301L mouse brain homogenate). Kind of data set: Western blot of total tau level in P301L brain lysate. The format is biochemical, human tau with P301L mutation, JNPL3 mice. Particulars: 50 µM, 2 h at 25 °C, 30 µg protein/100 µL, PBS pH 7.4, DAKO/actin band; mean ± SD, N = 3, p < 0.05. From the text:
Male JNPL3 mice expressing 0N4R human tau with the P301L mutation (P301L) were obtained from Taconic Biosciences (New York, USA) (Tau Model 2508). Controls were non-transgenic (Non-tg) male mice with the same mixed C57BL/6, DBA/2, SW genetic background as P301L mice. Triple transgenic mice harboring human PS1(M146 V), APP(SW), and MAPT(P301L) transgenes, referred to as 3xTg-AD, were kindly provided by Dr. Oddo [34]. Male and female C57BL/6 J mice, referred to as wild type (WT), were purchased from Envigo (Italy).
Fig. 2 Effect of Aβ1-6A2V-TAT(D) on the toxicity caused in C. elegans by misfolded tau in P301L and TBI brain homogenates. A Brains from P301L mice were homogenized in 10 mM PBS, pH 7.4, and given to worms alone or in the presence of Aβ1-6A2V-TAT(D). B Worms were administered with brain homogenate (30 µg protein/100 worms/100 µL) in the absence or presence of Aβ1-6A2V-TAT(D) (0-200 µM). […] E Representative western blotting showing the total level of tau and tau quantification expressed as the mean volume of the DAKO band immunoreactivity/actin band. […] The reaction was then stopped, and samples were analyzed by western blot. […]
Lysates from brain homogenates of P301L mice (30 µg protein/100 µL) incubated for 2 h at 25°C with 50 µM Aβ1-6A2V-TAT(D), 50 µM Aβ1-6A2V(D), 50 µM TAT or 10 mM PBS, pH 7.4, were analyzed by immunoblotting using 10% SDS-PAGE gel and Western blotting analysis. […]

The test system of another data set is Aβ soluble protofibrils. Particulars: ref [3]; cited from earlier work. From the text: Alzheimer’s disease (AD) is a double proteinopathy characterized by amyloid-β (Aβ) and tau pathology and is the most common dementia in older adults. Despite enormous efforts that have been made in the last few decades to find effective therapy, there are still few weapons available to fight this disease. […] Since the approval of aducanumab, ...

T1 sequence (P56817 46-501, species assumed): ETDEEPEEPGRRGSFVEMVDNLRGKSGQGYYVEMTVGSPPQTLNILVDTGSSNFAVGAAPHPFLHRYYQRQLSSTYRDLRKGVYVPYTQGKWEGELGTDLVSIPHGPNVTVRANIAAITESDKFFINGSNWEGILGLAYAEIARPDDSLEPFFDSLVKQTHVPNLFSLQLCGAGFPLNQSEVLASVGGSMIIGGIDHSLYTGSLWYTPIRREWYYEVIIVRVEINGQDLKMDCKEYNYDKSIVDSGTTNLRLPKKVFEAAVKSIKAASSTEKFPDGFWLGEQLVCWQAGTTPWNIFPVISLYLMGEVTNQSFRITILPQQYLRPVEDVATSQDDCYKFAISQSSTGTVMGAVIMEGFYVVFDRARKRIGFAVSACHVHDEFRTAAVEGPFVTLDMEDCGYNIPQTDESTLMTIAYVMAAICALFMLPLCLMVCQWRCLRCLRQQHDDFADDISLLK

As to `CC(C)[C@@H](NC(=O)[C@H](N)CC(=O)O)C(=O)N[C@H](CCC(=O)O)C(=O)N[C@H](Cc1ccccc1)C(=O)N[C@H](CCCNC(=N)N)C(=O)N[C@H](Cc1c[nH]cn1)C(=O)O` [Aβ1-6A2V(D)] (H-[dD][dV][dE][dF][dR][dH]-OH), in data set [1] (intranasal 50 mg/kg b.w., 24 h after administration), the “Peptide level in brain areas close to the contusion site, 24 h” value was “high levels of peptide still detectable 24 h after the administration”. For the same molecule, the “Presence of peptide in brain regions” value in data set [1] (single intranasal dose 50 mg/kg b.w. 10 min post-injury, 4-h and 24-h) was “present in the cerebral cortex, hippocampus, caudate-putamen, and cerebellum”. In addition, the “Peptide level in brain, 72 h” value in data set [1] (single intranasal dose 50 mg/kg b.w. 10 min post-injury, 72 h after administration) is “not detectable”. Also, the “Peptide level in ipsi- and contra-lateral hemispheres, up to 48 h” value in data set [1] (single intranasal dose 50 mg/kg b.w. 10 min post-injury, high levels persisting, although low, up to 48 h) was “high Aβ1-6A2V(D) levels were detected in the ipsi- and contra-lateral hemispheres that persisted, although at low levels, up to 48 h”. Moreover, in the data set with C. elegans, the “Passage through the worm's membrane” value was “only in the presence of the TAT sequence, Aβ1-6A2V(D) can pass through the worm’s membrane”. Besides, the “Brain distribution after single intranasal administration, AD mouse” value in data set [2] is recorded as “distributed in the AD mouse brain”. Also, the IC50 on BACE was found to be 126 nM.
In the case of “GRKKRRQRRR [TAT, TAT48-56(D) (…), reference compound]”, the “Total tau protein level in P301L brain homogenate” value in data set [3] is “but not TAT alone, significantly reduced the tau protein level”.

B1: Lecanemab: a humanized monoclonal antibody that binds with high affinity to Aβ soluble protofibrils (antibody, chains of the INN, looked up, V domains shown)
VH: EVQLVESGGGLVQPGGSLRLSCSASGFTFSSFGMHWVRQAPGKGLEWVAYISSGSSTIYYGDTVKGRFTISRDNAKNSLFLQMSSLRAEDTAVYYCAREGGYYYGRSYYTMDYWGQGTTVTVSS
VL: DVVMTQSPLSLPVTPGAPASISCRSSQSIVHSNGNTYLEWYLQKPGQSPKLLIYKVSNRFSGVPDRFSGSGSGTDFTLRISRVEAEDVGIYYCFQGSHVPPTFGPGTKLEIK
With B1, in the data set with Aβ soluble protofibrils, the “Binding affinity to Aβ soluble protofibrils” value is given as “binds with high affinity to Aβ soluble protofibrils”.
